Results on 23 compounds are retold here after patent US3991202A, “Imidazolium salts” (Janssen Pharmaceutica N.V., priority 1974, dated 1976).

Holding throughout (test): Antifungal growth inhibition in Sabouraud's liquid medium
Assay type in all cases: cell-based

One experiment concerns Cryptococcus neoformans. Particulars: Cr.n., tested at 100, 10, 1 μg/ml; for MIC: Cryptococcus neoformans, 336 h, read-out: Concentrations in μg/ml for 100% Inhibition of Growth. The protocol:
(§1) Tests for the control of fungal organisms were performed using Sabouraud's liquid medium (1 g. of neopeptone Difco and 2 g. of glucose Difco per 100 ml. distilled water) in test tubes, each containing 4.5 ml. of liquid medium, autoclaved at 120° C for 15 minutes. The imidazolium salts were prepared for testing by dissolving in 50% ethanol to a concentration of 20 mg./ml. and thereafter diluting with sterile distilled water to obtain a concentration of 10 mg./ml. Successive decimal dilutions were then made with sterile distilled water to prepare a series of test solutions. In carrying out the test, 0.5 ml. of one of the test solutions is added to 4.5 ml. of Sabouraud's liquid medium to obtain a test medium. In this manner, from appropriate test solution, test media containing 100 μg, 10 μg and 1 μg of imidazolium salt per milliliter of medium were obtained.
(§2) Control tubes were prepared by adding 0.5 ml. of sterile distilled water to 4.5 ml. of medium. Ethanol was also added to simulate the amount which would be present in the test media. Filamentous fungi were incubated at 25° C for two to three weeks. A square block of side 2 mm. was excised and inoculated into the liquid medium. A 3-day old culture on Sabouraud's liquid medium was used for yeasts. The inoculum was 0.05 ml. per tube. All cultures were incubated at 25° C for 14 days.

Experiment [1] concerns Ctenomyces mentagrophytes. Particulars: Ct.m., tested at 100, 10, 1 μg/ml; for MIC: Trichophyton mentagrophytes, 336 h, read-out: Concentrations in μg/ml for 100% Inhibition of Growth. Here is the method:
as §1, §2

The next experiment relates to Microsporum canis. Conditions: M.c., tested at 100, 10, 1 μg/ml; for MIC: Microsporum canis, 336 h, read-out: Concentrations in μg/ml for 100% Inhibition of Growth. Here is the method:
as §1, §2

The test system of another experiment is Trichophyton rubrum. Conditions: Tr.r., tested at 100, 10, 1 μg/ml; for MIC: Trichophyton rubrum, 336 h, read-out: Concentrations in μg/ml for 100% Inhibition of Growth. Here is the method:
as §1, §2

As for `O=C(C[n+]1ccn(CC(OCc2c(Cl)cccc2Cl)c2ccc(Cl)cc2Cl)c1)c1ccc(F)cc1` (centres unmarked) [2,4(Cl)2C6H3/drawing 66/CH2COC6H4pF], the MIC was found to be 10 µg/mL with Cryptococcus neoformans, 10 µg/mL in experiment [1], 10 µg/mL in the experiment with Microsporum canis and 1 µg/mL with Trichophyton rubrum.

As to `CCCCOC(Cn1cc[n+](CC(=O)Nc2ccc(F)cc2)c1)c1ccc(Cl)cc1Cl` (stereo not drawn) [2,4(Cl)2C6H3/nC4H9/CH2CONHC6H4pF, 1-(β-Butoxy-2,4-dichlorophenethyl)-3-[N-(p-fluorophenyl)carbamoylmethyl]imidazolium chloride], the MIC worked out at 100 µg/mL in the experiment with Cryptococcus neoformans, 10 µg/mL in experiment [1], 10 µg/mL with Microsporum canis and 10 µg/mL in the experiment on Trichophyton rubrum.

Take `CC(C(=O)Nc1ccccc1Cl)[n+]1ccn(CC(OCc2ccc(Cl)cc2Cl)c2ccc(Cl)cc2Cl)c1` (centres unmarked): the MIC with Cryptococcus neoformans was 100 µg/mL; in experiment [1] it was 10 µg/mL; with Microsporum canis, 10 µg/mL; in the experiment with Trichophyton rubrum, 1 µg/mL.

As to `O=C(C[n+]1ccn(CC(OCc2ccc(Cl)cc2)c2ccc(Cl)cc2Cl)c1)c1ccc(F)cc1` (centres unmarked) [2,4(Cl)2C6H3/drawing 65/CH2COC6H4pF], the MIC in the experiment with Cryptococcus neoformans is 10 µg/mL; in experiment [1], 1 µg/mL; in the experiment on Microsporum canis, 1 µg/mL; in the experiment with Trichophyton rubrum, 1 µg/mL.

For the compound `Clc1ccc(COC(Cn2cc[n+](CCOc3ccc4ccccc4c3)c2)c2ccc(Cl)cc2Cl)c(Cl)c1.O.[Br-]` (stereo not drawn) [(CH2)2OC10H7, 1-[2,4-Dichloro-β-(2,4-dichlorobenzyloxy)phenethyl]3-[2-(2-naphthyloxy)ethyl]imidazolium bromide hydrate], the MIC with Cryptococcus neoformans was determined as 1 µg/mL; in experiment [1], 10 µg/mL; in the experiment on Microsporum canis it was 10 µg/mL; in the experiment with Trichophyton rubrum it was 10 µg/mL.

As for `COc1cccc(C(=O)C[n+]2ccn(CC(OCc3ccc(Cl)cc3Cl)c3ccc(Cl)cc3Cl)c2)c1.[Br-]` (stereo not drawn) [CH2COC6H4mOCH3, 1-[2,4-dichloro-β-(2,4-dichlorobenzyloxy)phenethyl]-3-(m-methoxyphenacyl)imidazolium bromide], the MIC with Cryptococcus neoformans was 10 µg/mL; in experiment [1], 1 µg/mL; in the experiment on Microsporum canis, 10 µg/mL; with Trichophyton rubrum it was 1 µg/mL.

Turning to `O=C(Cn1cc[n+](CC(OCc2ccc(Cl)cc2Cl)c2ccc(Cl)cc2Cl)c1)c1ccc(Cl)cc1.[Br-]` (stereo not drawn) [CH2COC6H4pCl, 1-(p-chlorobenzoylmethyl)-3-[2,4-dichloro-β-(2,4-dichlorobenzyloxy)phenethyl]imidazolium bromide], the MIC (in the experiment with Cryptococcus neoformans; in experiment [1]; with Microsporum canis; with Trichophyton rubrum) was 1 µg/mL throughout.

For the compound `O=C(CCn1cc[n+](CC(OCc2ccc(Cl)cc2Cl)c2ccc(Cl)cc2Cl)c1)c1ccc(Br)cc1.[Cl-]` (stereo not drawn) [(CH2)2COC6H4pBr, 1-[2-(p-Bromobenzoyl)ethyl]-3-[2,4-dichloro-β-(2,4-dichlorobenzyloxy)phenethyl]imidazolium chloride], the MIC amounted to 1 µg/mL with Cryptococcus neoformans, 1 µg/mL in experiment [1], 10 µg/mL with Microsporum canis and 1 µg/mL with Trichophyton rubrum.

On to `Cc1cccc(C)c1N(C)C(=O)C[n+]1ccn(CC(OCc2ccc(Cl)cc2Cl)c2ccc(Cl)cc2Cl)c1` (centres unmarked), for which the MIC with Cryptococcus neoformans came to 10 µg/mL; in experiment [1], 10 µg/mL; with Microsporum canis, 10 µg/mL; with Trichophyton rubrum it was 1 µg/mL.

`O=C(C[n+]1ccn(CC(OCc2ccc(Cl)cc2Cl)c2ccc(Cl)cc2Cl)c1)Nc1ccccc1Cl` (stereo not drawn) [CH2CONHC6H4oCl, 1-[N-(o-chlorophenyl)carbamoylmethyl]-3-[2,4-dichloro-β-(2,4-dichlorobenzyloxy)phenethyl]imidazolium chloride]: the MIC in the experiment with Cryptococcus neoformans worked out at 10 µg/mL; in experiment [1], 10 µg/mL; in the experiment on Microsporum canis, 10 µg/mL; in the experiment on Trichophyton rubrum, 1 µg/mL.

For the compound `O=C(C[n+]1ccn(CC(OCc2ccc(Cl)cc2Cl)c2ccc(Cl)cc2Cl)c1)c1cccs1` (centres unmarked), the MIC in the experiment on Cryptococcus neoformans stood at 10 µg/mL; in experiment [1], 1 µg/mL; with Microsporum canis, 10 µg/mL; in the experiment with Trichophyton rubrum, 1 µg/mL.

Turning to `COc1cccc(NC(=O)C[n+]2ccn(CC(OCc3ccc(Cl)cc3Cl)c3ccc(Cl)cc3Cl)c2)c1` (centres unmarked) [CH2CONHC6H4m(OCH3), hydrate], the MIC in the experiment on Cryptococcus neoformans worked out at 10 µg/mL; in experiment [1], 10 µg/mL; in the experiment on Microsporum canis it was 10 µg/mL; in the experiment with Trichophyton rubrum, 1 µg/mL.

`Clc1ccc(C=CCn2cc[n+](CC(OCc3ccc(Cl)cc3Cl)c3ccc(Cl)cc3Cl)c2)c(Cl)c1.[Cl-]` (stereo not drawn) [CH2CHCHC6H3s,4(Cl)2, 1-(2,4-dichlorocinnamyl)-3-[2,4-dichloro-β-(2,4-dichlorobenzyloxy)phenethyl]-imidazolium chloride]: the MIC in the experiment with Cryptococcus neoformans was 10 µg/mL; in experiment [1] it was 1 µg/mL; in the experiment with Microsporum canis, 10 µg/mL; in the experiment on Trichophyton rubrum it was 10 µg/mL.

For the compound `Clc1ccc(COC(C[n+]2ccn(CC=Cc3ccccc3)c2)c2ccc(Cl)cc2Cl)c(Cl)c1.[Cl-]` (stereo not drawn) [CH2CHCHC6H5, 1-Cinnamyl-3-[2,4-dichloro-β-(2,4-dichlorobenzyloxy)phenethyl]imidazolium chloride], the MIC stood at 100 µg/mL with Cryptococcus neoformans, 10 µg/mL in experiment [1], 10 µg/mL in the experiment with Microsporum canis and 1 µg/mL in the experiment with Trichophyton rubrum.

Take `O=C(C[n+]1ccn(CC(OCc2ccc(Cl)cc2)c2ccc(Cl)cc2)c1)c1ccc(F)cc1` (stereo not drawn) [pClC6H4/CH2C6H4pCl/CH2COC6H4pF, 1-[p-Chloro-β-(p-chlorobenzyloxy)phenethyl]-3-(p-flurophenacyl)imidazolium chloride]: the MIC (in the experiment with Cryptococcus neoformans; in experiment [1]; with Microsporum canis; in the experiment on Trichophyton rubrum) was 10 µg/mL in each case.

As to `O=C(C[n+]1ccn(CC(OCc2ccc(Cl)cc2Cl)c2ccc(Cl)cc2Cl)c1)NCc1ccccc1Cl` (centres unmarked) [CH2CONHCH2C6H4oCl, 1-[N-(o-Chlorobenzyl)carbamoylmethyl]3-[2,4-dichloroβ-(2,4-dichlorobenzyloxy)phenethyl]imidazolium chloride], the MIC in the experiment with Cryptococcus neoformans is 100 µg/mL; in experiment [1], 10 µg/mL; in the experiment with Microsporum canis, 1 µg/mL; in the experiment with Trichophyton rubrum it was 1 µg/mL.

Take `Clc1ccc(NCCn2cc[n+](CC(OCc3ccc(Cl)cc3Cl)c3ccc(Cl)cc3Cl)c2)cc1.[Br-]` (stereo not drawn) [(CH2)2NHC6H4pCl, 1-[2-(p-chloroanilino)ethyl]-3-[2,4-dichloro-β-(2,4-dichlorobenzyloxy)phenethyl]imidazolium bromide]: the MIC in the experiment on Cryptococcus neoformans worked out at 1 µg/mL; in experiment [1] it was 10 µg/mL; in the experiment with Microsporum canis, 10 µg/mL; with Trichophyton rubrum, 10 µg/mL.

As to `O=C(C[n+]1ccn(CC(OCc2ccc(Cl)cc2Cl)c2ccc(Cl)cc2Cl)c1)Nc1ccccc1Oc1ccccc1` (stereo not drawn) [CH2CONHC6H4oOPh, 1-[2,4-dichloro-β-(2,4-dichlorobenzyloxy)phenethyl]-3-[N-(o-phenoxyphenyl)carbamoylmethyl]imidazolium chloride hydrate], the MIC in the experiment with Cryptococcus neoformans was found to be 100 µg/mL; in experiment [1], 10 µg/mL; in the experiment on Microsporum canis it was 1 µg/mL; in the experiment with Trichophyton rubrum, 1 µg/mL.

Consider `O=C(C[n+]1ccn(CC(OCc2ccc(Cl)cc2Cl)c2ccc(Cl)cc2Cl)c1)c1ccc(Cl)s1` (centres unmarked), for which the MIC in the experiment on Cryptococcus neoformans is 10 µg/mL; in experiment [1], 1 µg/mL; in the experiment on Microsporum canis, 1 µg/mL; with Trichophyton rubrum it was 1 µg/mL.

Regarding `Cc1cccc(Cl)c1CNC(=O)C(C)[n+]1ccn(CC(OCc2ccc(Cl)cc2Cl)c2ccc(Cl)cc2Cl)c1` (centres unmarked), the MIC in the experiment on Cryptococcus neoformans worked out at 100 µg/mL; in experiment [1], 1 µg/mL; in the experiment with Microsporum canis, 1 µg/mL; with Trichophyton rubrum it was 1 µg/mL.

As for `CCCCCCCC[n+]1ccn(CC(OCc2ccc(Cl)cc2Cl)c2ccc(Cl)cc2Cl)c1.[Br-]` (stereo not drawn) [nC8H17, 1-[2,4-dichloro-β-(2,4-dichlorobenzyloxy)phenethyl]3-n-octylimidazolium bromide], the MIC was found to be 100 µg/mL in the experiment on Cryptococcus neoformans, 10 µg/mL in experiment [1], 10 µg/mL with Microsporum canis and 1 µg/mL with Trichophyton rubrum.

In the case of “1-(β-butoxy2,4-dichlorophenethyl)-3-[p-chloro-a-(p-fluorophenyl)benzyl]imidazolium chloride”, the “Concentrations in μg/ml for 100% Inhibition of Growth” value came out at 100 µg/mL in the experiment with Cryptococcus neoformans, 10 µg/mL in experiment [1], 10 µg/mL in the experiment on Microsporum canis and 10 µg/mL with Trichophyton rubrum.

For `C=CCOC(Cn1cc[n+](CC(=O)c2ccc(F)cc2)c1)c1ccc(Cl)cc1Cl` (stereo not drawn) [2,4(Cl)2C6H3/CH2CHCH2/CH2COC6H4pF, 1-[β-(alloyloxy)-2,4-dichlorophenethyl]-3-(p-fluorophenacyl)imidazolium chloride], the MIC in the experiment on Cryptococcus neoformans was 100 µg/mL; in experiment [1] it was 10 µg/mL; in the experiment on Microsporum canis, 10 µg/mL; in the experiment with Trichophyton rubrum it was 10 µg/mL.
